Data from patent US20250346597A1, “CONDENSED HETEROCYCLIC COMPOUNDS AS INHIBITOR OF DIACYLGLYCEROL KINASES” (BEONE MEDICINES I GMBH, priority 2023, published 2025).

How the values were obtained:
[1] = target: DGKα (Homo sapiens (Human), UniProt P23743); assay: Biochemical DGK IC50 assay (ADP-Glo, lipid micelle substrate), DGKα; conditions: full length DGKα […], ATP 140 μM, DAG 80 μM; also: full length DGKα 7.5 nM
Method in brief: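 Luminescent ADP-Glo detection followed a 1 h room-temperature reaction of full-length DGKα on DAG/PS micelles, in HEPES buffer with 10 mM MgCl2, 0.01 mM CaCl2, 0.1 mM Na3VO4, BSA and Tween-20. IC50 derived from inhibition across increasing compound concentrations.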

[2] = target: DGKζ (Homo sapiens (Human), UniProt Q13574); assay: Biochemical DGK IC50 assay (ADP-Glo, lipid micelle substrate), DGKζ; conditions: full length DGKζ 0.5 nM, ATP 140 μM, DAG 80 μM
Chain of DGKζ (Q13574 other isoform, or with tags, fused parts or gaps): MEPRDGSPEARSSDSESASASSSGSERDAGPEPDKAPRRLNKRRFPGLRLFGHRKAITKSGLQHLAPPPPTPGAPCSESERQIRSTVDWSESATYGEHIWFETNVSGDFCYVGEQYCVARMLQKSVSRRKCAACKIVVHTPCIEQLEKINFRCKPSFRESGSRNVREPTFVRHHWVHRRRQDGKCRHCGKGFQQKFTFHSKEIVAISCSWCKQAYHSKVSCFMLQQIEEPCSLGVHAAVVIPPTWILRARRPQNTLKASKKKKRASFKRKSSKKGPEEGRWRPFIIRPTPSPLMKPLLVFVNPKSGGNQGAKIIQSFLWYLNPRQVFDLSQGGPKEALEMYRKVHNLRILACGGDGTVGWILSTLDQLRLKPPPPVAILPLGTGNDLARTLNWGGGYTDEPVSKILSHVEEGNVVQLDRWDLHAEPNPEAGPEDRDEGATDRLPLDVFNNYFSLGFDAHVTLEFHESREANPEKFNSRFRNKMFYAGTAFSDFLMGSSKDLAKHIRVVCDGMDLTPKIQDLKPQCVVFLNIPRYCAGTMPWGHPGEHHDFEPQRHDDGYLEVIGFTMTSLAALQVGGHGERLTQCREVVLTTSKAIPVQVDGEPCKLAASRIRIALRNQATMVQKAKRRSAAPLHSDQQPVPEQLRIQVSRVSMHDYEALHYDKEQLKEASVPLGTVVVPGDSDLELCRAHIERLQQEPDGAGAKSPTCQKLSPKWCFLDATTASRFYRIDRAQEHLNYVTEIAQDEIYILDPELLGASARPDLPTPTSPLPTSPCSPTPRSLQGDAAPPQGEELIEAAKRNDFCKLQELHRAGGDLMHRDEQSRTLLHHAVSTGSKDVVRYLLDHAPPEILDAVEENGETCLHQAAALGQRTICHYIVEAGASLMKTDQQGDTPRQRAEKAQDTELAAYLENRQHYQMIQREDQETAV
Method in brief: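 ADP-Glo luminescence measured ADP made in a 1 h room-temperature reaction. The enzyme was Sf9-expressed, purified full-length human DGKζ, and the substrate was DAG/PS micelles. Assay buffer held 50 mM HEPES, 10 mM MgCl2, 0.01 mM CaCl2, 0.1 mM Na3VO4 and 0.01% BSA. IC50 was derived from activity inhibition over a compound concentration series.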

Chain of DGKα (P23743 whole entry): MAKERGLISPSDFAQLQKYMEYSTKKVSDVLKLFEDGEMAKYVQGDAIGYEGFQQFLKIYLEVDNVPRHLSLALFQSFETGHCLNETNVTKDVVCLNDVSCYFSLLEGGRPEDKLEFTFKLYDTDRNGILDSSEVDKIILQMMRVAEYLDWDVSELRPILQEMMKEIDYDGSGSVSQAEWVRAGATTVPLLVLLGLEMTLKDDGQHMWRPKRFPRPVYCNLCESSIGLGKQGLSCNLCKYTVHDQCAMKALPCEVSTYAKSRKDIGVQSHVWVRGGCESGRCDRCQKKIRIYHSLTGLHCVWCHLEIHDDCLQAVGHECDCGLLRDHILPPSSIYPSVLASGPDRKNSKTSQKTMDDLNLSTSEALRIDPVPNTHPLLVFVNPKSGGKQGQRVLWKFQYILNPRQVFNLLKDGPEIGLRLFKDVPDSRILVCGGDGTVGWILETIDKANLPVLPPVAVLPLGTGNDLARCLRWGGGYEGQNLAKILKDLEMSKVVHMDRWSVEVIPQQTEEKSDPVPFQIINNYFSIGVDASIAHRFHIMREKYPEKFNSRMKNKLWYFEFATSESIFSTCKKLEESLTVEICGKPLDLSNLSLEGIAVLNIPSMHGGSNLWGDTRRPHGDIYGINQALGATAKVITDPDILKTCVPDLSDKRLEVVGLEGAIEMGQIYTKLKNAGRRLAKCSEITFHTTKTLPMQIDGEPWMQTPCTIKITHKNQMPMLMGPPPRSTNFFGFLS

Row | SMILES | IC50 [1] [nM] | IC50 [2] [nM]
1 | CC[C@H]1CN(C(C)c2ccc(OC3COC3)cc2F)[C@H](CC)CN1c1cc(=O)n(C)c2cn(CC#N)nc12 (stereo partly drawn) [Compound A22, 2-(7-((2S,5R)-2,5-diethyl-4-(1-(2-fluoro-4-(oxetan-3-yloxy)phenyl)ethyl)piperazin-1-yl)-4-methyl-5-oxo-4,5-dihydro-2H-pyrazolo[4,3-b]pyridin-2-yl)acetonitrile] | 833 | 465
2 | CC[C@H]1CN(C(C)c2ccc(CN3CC(F)(F)C3)cc2)[C@H](CC)CN1c1cc(=O)n(C)c2cn(CC#N)nc12 (stereo partly drawn) [Compound A27, 2-(7-((2S,5R)-4-(1-(4-((3,3-difluoroazetidin-1-yl)methyl)phenyl)ethyl)-2,5-diethylpiperazin-1-yl)-4-methyl-5-oxo-4,5-dihydro-2H-pyrazolo[4,3-b]pyridin-2-yl)acetonitrile] | 50 | 202
3 | CC[C@H]1CN(C(C)c2ccc(CNC)cc2)[C@H](CC)CN1c1cc(=O)n(C)c2cn(CC#N)nc12 (stereo partly drawn) [Compound A29, 2-(7-((2S,5R)-2,5-diethyl-4-(1-(4-((methylamino)methyl)phenyl)ethyl)piperazin-1-yl)-4-methyl-5-oxo-4,5-dihydro-2H-pyrazolo[4,3-b]pyridin-2-yl)acetonitrile] | 2600 | 3930
4 | CC[C@H]1CN(C(C)c2ccc(-c3cn(C)nn3)cc2)[C@H](CC)CN1c1cc(=O)n(C)c2cn(CC#N)nc12 (stereo partly drawn) [Compound A30, 2-(7-((2S,5R)-2,5-diethyl-4-(1-(4-(1-methyl-1H-1,2,3-triazol-4-yl)phenyl)ethyl)piperazin-1-yl)-4-methyl-5-oxo-4,5-dihydro-2H-pyrazolo[4,3-b]pyridin-2-yl)acetonitrile] | 666 | 3690
5 | CC[C@H]1CN(C(C)c2ccc(C(C)C)cc2)[C@H](CC)CN1c1cc(=O)n(C)c2cn(CC#N)nc12 (stereo partly drawn) [Compound A31, 2-(7-((2S,5R)-2,5-diethyl-4-(1-(4-isopropylphenyl)ethyl)piperazin-1-yl)-4-methyl-5-oxo-4,5-dihydro-2H-pyrazolo[4,3-b]pyridin-2-yl)acetonitrile] | 615 | 213
6 | CC[C@H]1CN([C@H](C)c2ccc(OC(C)C)cc2)[C@H](CC)CN1c1cc(=O)n(C)c2cn(CC#N)nc12 [Compound A33a] | 49 | 45
7 | CC[C@H]1CN([C@@H](C)c2ccc(OC(C)C)cc2)[C@H](CC)CN1c1cc(=O)n(C)c2cn(CC#N)nc12 [Compound A33b] | 344 | 770

Further compounds by falling IC50 [1], results first:

Row | IC50 [1] [nM] | IC50 [2] [nM] | SMILES
8 | 10000 | 4830 | CC[C@H]1CN(C(C)c2ccc(CN(C)C)cc2)[C@H](CC)CN1c1cc(=O)n(C)c2cn(CC#N)nc12 (stereo partly drawn) [Compound A28, 2-(7-((2S,5R)-4-(1-(4-((dimethylamino)methyl)phenyl)ethyl)-2,5-diethylpiperazin-1-yl)-4-methyl-5-oxo-4,5-dihydro-2H-pyrazolo[4,3-b]pyridin-2-yl)acetonitrile]
9 | 378 | 312 | CC[C@H]1CN(C(C)c2ccc(OC)c(F)c2)[C@H](CC)CN1c1cc(=O)n(C)c2cn(CC#N)nc12 (stereo partly drawn) [Compound A20, 2-(7-((2S,5R)-2,5-diethyl-4-(1-(3-fluoro-4-methoxyphenyl)ethyl)piperazin-1-yl)-4-methyl-5-oxo-4,5-dihydro-2H-pyrazolo[4,3-b]pyridin-2-yl)acetonitrile]
10 | 183 | 244 | CC[C@H]1CN(C(C)c2ccc(OC3CC3)cc2)[C@H](CC)CN1c1cc(=O)n(C)c2cn(CC#N)nc12 (stereo partly drawn) [Compound A32, 2-(7-((2S,5R)-4-(1-(4-cyclopropoxyphenyl)ethyl)-2,5-diethylpiperazin-1-yl)-4-methyl-5-oxo-4,5-dihydro-2H-pyrazolo[4,3-b]pyridin-2-yl)acetonitrile]
11 | 100 | 427 | CC[C@H]1CN(C(C)c2ccc(OC3(C)COC3)cc2)[C@H](CC)CN1c1cc(=O)n(C)c2cn(CC#N)nc12 (stereo partly drawn) [Compound A24, 2-(7-((2S,5R)-2,5-diethyl-4-(1-(4-((3-methyloxetan-3-yl)oxy)phenyl)ethyl)piperazin-1-yl)-4-methyl-5-oxo-4,5-dihydro-2H-pyrazolo[4,3-b]pyridin-2-yl)acetonitrile]
